Experimental data taken from ChEMBL document CHEMBL1201862, “PubChem BioAssay data set” (2004).
Calls of active or inactive are those of the source.

How the values were obtained:
HeLa = assay: HeLa cell cytotoxicity, dose response, cytotoxicity control, 24 h, cherry-picked samples (AID 504726); assay type: functional, cell-based; conditions: Homo sapiens;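 further: potency for cytotoxicity as loss of luminescence signal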
ORF 73 = target: T1, ORF 73 (Human herpesvirus 8, UniProt O40947); assay: inhibitors of C-LANA binding to LBS DNA, dose response, biochemical, fluorescence polarization, cherry-picked samples (AID 504725); set-up: species or system Human gammaherpesvirus 8;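 further: fluorescence polarization of a labeled DNA duplex reporting LANA DNA binding; potency is for inhibitors that block LANA binding to the DNA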
T1 sequence (O40947 whole entry): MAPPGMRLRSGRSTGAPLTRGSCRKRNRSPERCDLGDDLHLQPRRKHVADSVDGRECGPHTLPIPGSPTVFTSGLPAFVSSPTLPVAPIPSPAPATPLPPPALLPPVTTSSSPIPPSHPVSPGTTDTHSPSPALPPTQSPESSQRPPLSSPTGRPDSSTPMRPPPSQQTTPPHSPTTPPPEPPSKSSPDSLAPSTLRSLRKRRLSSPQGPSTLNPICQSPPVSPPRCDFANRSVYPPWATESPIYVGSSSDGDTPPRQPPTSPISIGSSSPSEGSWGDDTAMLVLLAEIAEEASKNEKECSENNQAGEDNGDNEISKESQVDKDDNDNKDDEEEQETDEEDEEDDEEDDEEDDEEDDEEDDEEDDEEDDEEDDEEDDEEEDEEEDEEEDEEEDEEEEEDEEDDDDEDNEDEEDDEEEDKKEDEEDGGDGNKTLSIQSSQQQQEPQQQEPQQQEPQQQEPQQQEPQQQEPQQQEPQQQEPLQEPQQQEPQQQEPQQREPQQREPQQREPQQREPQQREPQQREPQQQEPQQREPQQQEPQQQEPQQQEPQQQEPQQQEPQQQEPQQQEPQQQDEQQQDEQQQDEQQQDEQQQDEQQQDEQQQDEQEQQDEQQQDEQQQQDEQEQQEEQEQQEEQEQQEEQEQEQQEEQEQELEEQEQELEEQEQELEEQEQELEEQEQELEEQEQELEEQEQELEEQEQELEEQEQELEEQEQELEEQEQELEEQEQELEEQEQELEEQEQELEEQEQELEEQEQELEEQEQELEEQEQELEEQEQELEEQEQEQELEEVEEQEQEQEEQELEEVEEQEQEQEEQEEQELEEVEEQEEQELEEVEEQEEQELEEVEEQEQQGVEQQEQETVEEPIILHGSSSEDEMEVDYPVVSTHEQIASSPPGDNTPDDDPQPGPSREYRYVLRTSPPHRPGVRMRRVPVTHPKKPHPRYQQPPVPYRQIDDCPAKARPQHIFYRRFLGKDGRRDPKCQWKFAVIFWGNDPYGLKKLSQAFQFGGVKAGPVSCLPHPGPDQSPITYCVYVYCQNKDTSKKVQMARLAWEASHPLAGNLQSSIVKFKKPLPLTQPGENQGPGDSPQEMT

Cytochrome P450 2D6 = Cytochrome P450 2D6 (Homo sapiens, UniProt P10635);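 further: CYP2D6 member of a cytochrome P450 panel assay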
HEK293 [1] = assay: cells; conditions: Homo sapiens
HEK293 [2] = assay: cells; conditions: Homo sapiens; remark: listed apart in the source
[3] = A Cell Based Secondary Assay To Explore Cytotoxicity of Compounds that Sensitize Mycobacterium Tuberculosis to Beta-Lactam Antibiotics.; assay type: functional
[4] = target: T2, Microphthalmia-associated transcription factor (Homo sapiens, UniProt O75030); assay: TRPM1 promoter luciferase signal decrease, dose response, MITF inhibitor project, cell-based, SK-MEL-5, cherry-picked, set 3 (AID 493073); assay type: functional
T2 sequence (O75030 whole entry): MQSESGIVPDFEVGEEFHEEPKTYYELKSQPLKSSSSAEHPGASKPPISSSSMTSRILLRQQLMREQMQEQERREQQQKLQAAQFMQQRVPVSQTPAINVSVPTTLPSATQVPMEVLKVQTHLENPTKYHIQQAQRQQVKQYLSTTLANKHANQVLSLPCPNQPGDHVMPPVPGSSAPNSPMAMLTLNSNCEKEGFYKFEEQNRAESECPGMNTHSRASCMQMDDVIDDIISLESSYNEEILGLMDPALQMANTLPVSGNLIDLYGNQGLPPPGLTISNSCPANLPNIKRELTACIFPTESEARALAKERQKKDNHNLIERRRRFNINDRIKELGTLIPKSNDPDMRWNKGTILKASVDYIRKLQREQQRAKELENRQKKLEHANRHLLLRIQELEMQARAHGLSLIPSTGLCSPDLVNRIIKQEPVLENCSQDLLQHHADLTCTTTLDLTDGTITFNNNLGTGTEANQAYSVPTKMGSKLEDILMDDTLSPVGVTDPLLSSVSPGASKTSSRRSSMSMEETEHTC

A-375 [5] = assay: MITF: Counter assay: A375 proliferation Measured in Cell-Based System Using Plate Reader - 2084-03_Inhibitor_Dose_DryPowder_Activity. [Related pubchem assays (depositor defined):AID488944]; assay type: functional; conditions: Homo sapiens
A-375 [6] = assay: A375 melanoma cell viability reduction, dose response, counter-screen for MITF modulator project, cherry-pick samples, set 2 (AID 540335); assay type: functional, cell-based; conditions: Homo sapiens
[7] = Shn3 3'UTR reporter inhibitors, dose response, cell-based, Clone20 osteoblasts, firefly luciferase, cherry-picked (AID 624132); assay type: functional;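 further: firefly luciferase luminescence from reporter carrying the Shn3 3'UTR in osteoblasts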
[8] = HepG2 cell cytotoxicity, dose response, cytotoxicity control for Shn3 inhibitor project, CellTiter-Glo, cherry-picked (AID 624134); assay type: functional, cell-based
[9] = control 3'UTR Renilla luciferase suppression, dose response, counter-screen for Shn3 inhibitor project, cell-based, Clone20-Shn3RL, cherry-picked (AID 624133); assay type: functional
Escherichia coli = assay: microbe, parasite or virus in culture
Vero [10] = assay: cells; assay type: functional, cell-based; conditions: Chlorocebus sabaeus
Vero [11] = assay: cells; assay type: functional; conditions: Chlorocebus sabaeus
[12] = target: Delta-type opioid receptor (Homo sapiens, UniProt P41143); assay: Counterscreen for agonists of heterodimerization of the mu 1 (OPRM1) and delta 1 (OPRD1) opioid receptors: Luminescence-based cell-based high throughput dose response assay to identify agonists of OPRD1 homodimerization. [Related pubchem assays (depositor defined):AID504326, AID504355, AID504692, AID504904, AID504905]; assay type: functional
Mu-type opioid receptor = Mu-type opioid receptor (Homo sapiens, UniProt P35372); assay: Counterscreen for agonists of heterodimerization of the mu 1 (OPRM1) and delta 1 (OPRD1) opioid receptors: Luminescence-based cell-based high throughput dose response assay to identify agonists of OPRM1 homodimerization.; assay type: functional;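 further: U2OS cells expressing OPRM1 and beta-arrestin as split beta-galactosidase partners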
[13] = target: 5-hydroxytryptamine receptor 5A (Homo sapiens, UniProt P47898); assay: Counterscreen for agonists of OPRM1-OPRD1 heterodimerization: luminescence-based cell-based high throughput dose response assay to identify agonists of 5-hydroxytryptamine (serotonin) 5A receptor (HTR5A). [Related pubchem assays (depositor defined):AID504326, AID504355, AID504692, AID504904, AID504905]; assay type: functional
5-hydroxytryptamine receptor 5A, sequence (P47898 whole entry): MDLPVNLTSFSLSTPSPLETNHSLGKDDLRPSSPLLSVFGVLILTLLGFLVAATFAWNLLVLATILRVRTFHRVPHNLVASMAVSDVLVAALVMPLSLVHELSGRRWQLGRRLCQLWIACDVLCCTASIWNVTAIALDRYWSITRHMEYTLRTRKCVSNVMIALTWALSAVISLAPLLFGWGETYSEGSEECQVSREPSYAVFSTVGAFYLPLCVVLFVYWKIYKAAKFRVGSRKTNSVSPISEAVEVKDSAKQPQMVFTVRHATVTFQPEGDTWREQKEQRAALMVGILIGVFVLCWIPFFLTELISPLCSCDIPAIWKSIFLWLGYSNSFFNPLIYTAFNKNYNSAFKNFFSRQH

Mu-type opioid receptor, sequence (P35372 whole entry): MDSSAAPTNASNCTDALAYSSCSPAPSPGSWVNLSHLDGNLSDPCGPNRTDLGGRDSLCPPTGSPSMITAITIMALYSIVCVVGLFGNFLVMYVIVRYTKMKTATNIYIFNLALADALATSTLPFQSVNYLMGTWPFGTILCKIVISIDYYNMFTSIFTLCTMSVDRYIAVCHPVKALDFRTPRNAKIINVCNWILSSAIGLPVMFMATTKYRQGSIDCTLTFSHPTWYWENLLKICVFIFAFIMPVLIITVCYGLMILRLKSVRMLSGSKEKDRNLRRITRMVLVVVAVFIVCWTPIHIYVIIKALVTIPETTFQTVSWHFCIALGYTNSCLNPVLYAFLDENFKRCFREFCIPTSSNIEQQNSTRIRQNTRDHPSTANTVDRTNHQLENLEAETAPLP
Cytochrome P450 2D6, sequence (P10635 whole entry): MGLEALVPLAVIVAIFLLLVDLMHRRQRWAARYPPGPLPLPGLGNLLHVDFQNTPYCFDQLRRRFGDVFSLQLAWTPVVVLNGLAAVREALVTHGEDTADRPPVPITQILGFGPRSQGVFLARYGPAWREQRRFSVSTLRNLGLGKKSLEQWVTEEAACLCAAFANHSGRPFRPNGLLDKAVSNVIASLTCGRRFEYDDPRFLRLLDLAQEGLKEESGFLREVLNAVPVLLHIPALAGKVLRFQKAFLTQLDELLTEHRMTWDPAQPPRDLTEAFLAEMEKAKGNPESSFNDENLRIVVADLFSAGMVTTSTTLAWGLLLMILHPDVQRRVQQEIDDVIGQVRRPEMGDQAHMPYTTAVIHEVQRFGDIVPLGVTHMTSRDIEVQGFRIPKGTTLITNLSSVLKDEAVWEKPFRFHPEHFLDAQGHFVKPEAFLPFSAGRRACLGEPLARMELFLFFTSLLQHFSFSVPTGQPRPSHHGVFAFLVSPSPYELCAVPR
Delta-type opioid receptor, sequence (P41143 whole entry): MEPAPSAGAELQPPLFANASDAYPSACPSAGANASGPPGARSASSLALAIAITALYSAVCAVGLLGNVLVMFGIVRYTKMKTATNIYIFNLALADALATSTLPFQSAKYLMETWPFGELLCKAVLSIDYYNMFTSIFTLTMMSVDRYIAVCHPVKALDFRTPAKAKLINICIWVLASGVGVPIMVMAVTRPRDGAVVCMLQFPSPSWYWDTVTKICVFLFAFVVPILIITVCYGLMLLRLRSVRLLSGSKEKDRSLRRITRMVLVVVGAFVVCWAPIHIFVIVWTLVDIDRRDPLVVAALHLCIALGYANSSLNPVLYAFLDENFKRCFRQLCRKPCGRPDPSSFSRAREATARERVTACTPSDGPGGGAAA

## CC(C)(C)n1nnnc1C(c1cccnc1)N(Cc1ccccc1)Cc1ccco1 (stereo not given)
HeLa
  AC50: 75.8 µM (active)
ORF 73
  AC50: 0.592 µM (active)
Cytochrome P450 2D6
  AC50: 31.6 µM (inconclusive)
HEK293 [1]
  EC50: > 59.6 µM (inactive)
HEK293 [2]
  EC50: > 59.6 µM (inactive)

## O=C(Nc1ccc2nc3n(c(=O)c2c1)CCCC3)c1cc([N+](=O)[O-])ccc1F
[3]
  CC50: 15.1 µM (active)
[4]
  AC50: 11.5 µM (active)
A-375 [5]
  AC50: > 35 µM (active)
A-375 [6]
  AC50: > 35 µM (active)
[7]
  AC50: 0.361 µM (active)
[8]
  AC50: 39.2 µM (active)
[9]
  AC50: 21.8 µM (active)

## O=C1CN2C(=Nc3ccc(Br)cc3C2c2ccccc2)CCN1 (stereo not given)
Escherichia coli
  AC50: 81.5 µM (active)

## Cc1ccc(-c2nnn3c2nc(Cl)c2ccccc23)cc1
Vero [10]
  IC50: > 25 µM (active)
Vero [11]
  CC50: 18.4 µM (active)

## CC(C)(CO)NC(=O)c1ccc2nc(Cc3cccc(Cl)c3)oc2c1
A-375 [5]
  AC50: > 35 µM (active)
A-375 [6]
  AC50: > 35 µM (active)

## CCOC(=O)c1c(C)[nH]c(C(=O)OCC(O)=C(C#N)c2nc3ccccc3[nH]2)c1C
[12]
  EC50: > 92.5 µM (inactive)
Mu-type opioid receptor
  EC50: > 92.5 µM (inactive)
[13]
  EC50: > 92.5 µM (inactive)
